We go through 1 molecule from patent US12435144B2, “Use of combination of anti-PD-1 antibody and VEGFR inhibitor in preparation of drug for treating cancers” (Suzhou Suncadia Biopharmaceuticals Co., Ltd., priority 2016, dated 2025).

For series [1], the system named is metastatic gastric/gastroesophageal junction cancer. As to conditions: cited from earlier work.
The target in a further series is VEGFR-2 (Homo sapiens, UniProt P35968). As to conditions: little or no inhibition on other kinases; cited from earlier work.
Chain of VEGFR-2 (P35968 20-1356, species assumed): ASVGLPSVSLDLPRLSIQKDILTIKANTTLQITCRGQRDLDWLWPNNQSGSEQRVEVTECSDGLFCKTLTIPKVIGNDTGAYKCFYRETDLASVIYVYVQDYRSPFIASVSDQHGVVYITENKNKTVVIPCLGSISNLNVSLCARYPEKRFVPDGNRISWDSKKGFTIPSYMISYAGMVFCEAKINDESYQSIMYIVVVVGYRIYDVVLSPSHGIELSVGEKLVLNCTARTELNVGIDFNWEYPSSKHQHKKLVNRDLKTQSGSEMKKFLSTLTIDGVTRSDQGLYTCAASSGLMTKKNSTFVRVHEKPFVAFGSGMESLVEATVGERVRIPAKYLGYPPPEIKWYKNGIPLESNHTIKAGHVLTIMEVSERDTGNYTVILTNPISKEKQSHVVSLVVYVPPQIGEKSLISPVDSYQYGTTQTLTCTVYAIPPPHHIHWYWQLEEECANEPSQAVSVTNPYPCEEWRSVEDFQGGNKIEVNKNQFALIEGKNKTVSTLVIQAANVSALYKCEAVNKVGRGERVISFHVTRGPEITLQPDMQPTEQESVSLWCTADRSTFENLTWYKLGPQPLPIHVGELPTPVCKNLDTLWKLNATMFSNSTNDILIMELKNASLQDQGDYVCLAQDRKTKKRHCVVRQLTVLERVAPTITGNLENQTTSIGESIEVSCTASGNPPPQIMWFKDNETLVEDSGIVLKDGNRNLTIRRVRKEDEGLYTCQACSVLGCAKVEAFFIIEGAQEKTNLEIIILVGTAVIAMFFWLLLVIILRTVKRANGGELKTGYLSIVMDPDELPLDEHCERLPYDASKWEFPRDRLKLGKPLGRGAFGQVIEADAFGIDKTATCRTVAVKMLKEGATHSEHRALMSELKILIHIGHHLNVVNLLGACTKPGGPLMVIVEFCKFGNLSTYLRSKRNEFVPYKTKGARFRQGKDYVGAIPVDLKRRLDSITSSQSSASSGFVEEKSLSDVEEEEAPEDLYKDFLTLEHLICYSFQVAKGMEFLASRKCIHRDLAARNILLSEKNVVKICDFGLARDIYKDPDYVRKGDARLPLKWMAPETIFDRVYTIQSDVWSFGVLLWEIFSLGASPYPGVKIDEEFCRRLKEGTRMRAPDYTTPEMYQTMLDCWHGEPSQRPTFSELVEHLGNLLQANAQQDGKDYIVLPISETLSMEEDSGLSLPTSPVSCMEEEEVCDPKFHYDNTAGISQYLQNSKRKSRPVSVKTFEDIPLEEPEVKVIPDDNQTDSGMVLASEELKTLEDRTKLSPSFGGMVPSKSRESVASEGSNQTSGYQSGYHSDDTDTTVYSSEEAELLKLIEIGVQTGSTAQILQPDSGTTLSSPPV
Series [2] has as its system mouse colon cancer cell MC-38 (PD-L1) xenograft. In words: MC38 (PD-L1) xenograft in human PD-1 transgenic C57 mice. It counts as in vivo. The conditions noted are these: anti-PD-1 antibody 3 mg/kg ip Q2D*7, apatinib 200 mg/kg po QD*14. As for the experimental part: • 1. Study purposes: Human PD-1 transgenic mice were used as test animals. The effects of anti-PD-1 antibody in combination with apartinib on human PD-1 expressed in transgenic C57 mice were evaluated, and the transgenic mice bear mouse colon cancer cell MC-38 (PD-L1) xenograft transfected with PD-L1 gene. • 2. Test antibodies and compounds: The anti-PD-1 antibody was prepared according to the method disclosed in WO2015085847 in which the corresponding code of the antibody is H005-1, and the sequences of the heavy and light chain are shown in SEQ ID NO: 7 and SEQ ID NO: 8 in the present invention. Lot number: P1512, 200 mg/vial, formulated into 20 mg/ml before use. Apatinib mesylate was prepared according to the method disclosed in CN101676267A, lot number: 668160401; molecular weight: 493.58; purity: 99.60%. • 3. Experimental animals: Human PD-1 transgenic C57 mice, specific-pathogen-free (SPF), with different body weights, 50% male and 50% female, were purchased from IsisInnovation Limited, UK. • 4. Drug preparation: Anti-PD-1 antibody (3 mg/kg): anti-PD-1 antibody stock solution (20 mg/ml) was adjusted to a concentration of 0.3 mg/ml with phosphate buffered saline (PBS), and the intraperitoneal injection volume was 0.2 ml/mouse. Apatinib (200 mg/kg): 400 mg apatinib was dissolved in 20 ml of 0.5% sodium carboxymethylcellulose (NaCMC), adjusted to 20 mg/ml, and was administered in 0.2 ml per mouse by gavage. […] The specific drug administration regimen is shown in Table 1. • 5.4 Determination of volume of xenograft and body weight of mice: Tumor volume and body weight were measured twice a week and data were recorded. • 5.5 Statistics: Excel 2003 statistical software was used: the mean was calculated by avg; the SD value was calculated by STDEV; the SEM value was calculated by STDEV/SQRT; the P value indicating the difference between groups is calculated by TTEST. […]

The mark [3] stands for this setting: apatinib alone compared with placebo.

`N#CC1(c2ccc(NC(=O)c3cccnc3NCc3ccncc3)cc2)CCCC1` [apatinib, reference compound]: in series [1] (setting [3]), the “prolongation of median overall survival” value was 1.8 months and the “prolongation of median progression-free survival” value is given as 0.8 months. In series [1] (apatinib alone), the adverse events entry is “controllable”. Also, the “selectivity for VEGFR-2 over other kinases” value at VEGFR-2 is “highly selective for VEGFR-2”. Further, the “Relative tumor volume D21” value in series [2] (RTV=VT/V0, day 21) was 9.27. Also, the “% Tumor inhibition rate D21” value in series [2] (day 21, vs HIgG control) is given as 25.67%. In addition, in series [2] (day 21 after initial administration, 8 mice/group), the “Mean tumor volume (mm^3) D21” value is reported as 1263.86 mm^3.
